The results in this text go back to US7678918B2, “Intermediates for imidazonaphthyridines” (3M Innovative Properties Company, priority 1997, dated 2010).

In data set [1] the test system is IFN. The experiment in a line: Cytokine Induction in Human Cells: interferon (IFN) secreted by PBMCs, A549/encephalomyocarditis bioassay. Note: call rule not given here. Format: cell-based. To be noted: 18 to 24 hours. In a few lines:
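Human PBMCs from healthy donors at 1.5-2×10^6 cells/mL in RPMI with 10% FBS, exposed to compounds (typically 0.1 to 100 μM, ≤1% DMSO) for 18 to 24 h at 37° C. Secreted IFN measured by A549/encephalomyocarditis virus cytopathic-effect bioassay, in alpha reference units/mL against NIH human leukocyte IFN standard.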

The subject of data set [2] is TNF. The experiment in a line: Cytokine Induction in Human Cells: tumor necrosis factor (TNF) secreted by PBMCs, ELISA. Note: call rule not given here. As to conditions: 18 to 24 hours. The data set is classed as cell-based. In a few lines: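 Human donor PBMCs at 1.5-2×10^6 cells/mL in RPMI with 10% FBS were exposed to compound, generally at 0.1 to 100 μM (≤1% DMSO final), for 18 to 24 h at 37 °C. Secreted TNF in supernatant was measured by ELISA and reported as pg/mL.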

Regarding `CC(C)Cn1nnn2c3ncccc3c3ncnc-3c12` [Example 8, 1-(2-Methylpropyl)-1H-tetrazolo[1,5-a]imidazo[4,5-c][1,8]naphthyridine], the melting point was 248 to 250 °C (dec.).
On the same count and under the same terms, under `Cc1nnnn1-c1cnccc1C(=O)O` [Example 14, 3-(5-Methyl-1H-tetrazol-1-yl)pyridine-4-carboxylic acid] stands 214 to 215 °C (dec.); under `Clc1cc2nnnn2c2cnccc12` [Example 17, 5-Chlorotetrazolo[1,5-a][1,7]naphthyridine], 176 to 177 °C.
Same read-out and setting: under `CC(C)CNc1cc2nnnn2c2cnccc12` [Example 18, N^5-(2-Methylpropyl)tetrazolo[1,5-a][1,7]naphthyridin-5-amine] stands 220 to 221 °C; under `CC(C)CNc1c([N+](=O)[O-])c2nnnn2c2cnccc12` [Example 19, N^5-(2-Methylpropyl)-4-nitrotetrazolo[1,5-a][1,7]naphthyridin-5-amine], 173 to 174 °C; under `CC(C)CNc1c(N)c2nnnn2c2cnccc12` [Example 20, N^5-(2-Methylpropyl)tetrazolo[1,5-a][1,7]naphthyridin-4,5-diamine], 203 to 204.5 °C.
On the same count and under the same terms, under `CC(C)Cn1nnc2c3ncnc-3c3ccncc3n21` [Example 21, 1-(2-Methylpropyl)-1H-tetrazolo[1,5-a]imidazo[4,5-c][1,7]naphthyridine] stands 181 to 182.5 °C; under `CC(C)CNc1c([N+](=O)[O-])cnc2cccnc12` [Example 29, N^4-(2-Methylpropyl)-3-nitro[1,5]naphthyridin-4-amine], 97 to 99 °C.
Molecule `CC(C)Cn1cnc2cnc3cccnc3c21` [Example 30, 1-(2-Methylpropyl)-1H-imidazo[4,5-c][1,5]naphthyridine] came in with a melting point of 82 to 84 °C.
In turn, `Cc1nc2cnc3cccnc3c2n1CC(C)C` [Example 34, 2-Methyl-1-(2-methylpropyl)-1H-imidazo[4,5-c][1,5]naphthyridine] returned a melting point of 118 to 119 °C.
Still for that read-out and setting: with `CC(C)(C)OC(=O)NCCCCNc1c([N+](=O)[O-])cnc2cccnc12` [Example 41, 1,1-Dimethylethyl N-{4-[(3-Nitro[1,5]naphthyridin-4-yl)amino]butyl}carbamate] the figure was 137 to 138 °C; with `CCCCc1nc2cnc3cccnc3c2n1CCCCNC(=O)OC(C)(C)C` [Example 43, 1,1-Dimethylethyl N-[4-(2-Butyl-1H-imidazo[4,5-c][1,5]naphthyridin-1-yl)butyl]carbamate], 96 to 98 °C.
Molecule `CCCCc1nc2c(N)nc3cccnc3c2n1CCCCNC(=O)OC(C)(C)C` [Example 45, 1,1-Dimethylethyl N-[4-(4-Amino-2-butyl-1H-imidazo[4,5-c][1,5]naphthyridin-1-yl)butyl]carbamate] registered a melting point of 148.5 to 149.5 °C. Further, the IFN induction result in data set [1] (Dose Concentration 0.1 μM) was “+”. Besides, the IFN induction result in data set [1] (Dose Concentration 1.0 μM) is “+”. For the same molecule, the IFN induction result in data set [1] (Dose Concentration 10.0 μM) is given as “+”. The IFN induction result in data set [1] (Dose Concentration 100.0 μM) is listed as “−”. For the same molecule, the TNF induction result in data set [2] (Dose Concentration 0.1 μM) is “−”. Moreover, in data set [2] (Dose Concentration 1.0 μM), the TNF induction entry is on record as “+”. The TNF induction result in data set [2] (Dose Concentration 10.0 μM) was “+”. Further, the TNF induction entry in data set [2] (Dose Concentration 100.0 μM) is given as “−”.
As to `CCCCc1nc2c(N)nc3cccnc3c2n1CCCCN` [Example 46, 4-(4-Amino-2-butyl-1H-imidazo[4,5-c][1,5]naphthyridin-1-yl)butaneamine], the melting point was in the range of 212 to 213 °C. Further, the IFN induction result in data set [1] (Dose Concentration 0.1 μM) was “+”. In data set [1] (Dose Concentration 1.0 μM), the IFN induction entry is “+”. Besides, in data set [1] (Dose Concentration 10.0 μM), the IFN induction result is “+”. Further, in data set [2] (Dose Concentration 0.1 μM), the TNF induction result is reported as “+”. Further, in data set [2] (Dose Concentration 1.0 μM), the TNF induction result is “+”. Further, the TNF induction entry in data set [2] (Dose Concentration 10.0 μM) is reported as “+”. Also, the TNF induction entry in data set [2] (Dose Concentration 100.0 μM) was “+”.
`CC(C)(O)CNc1c([N+](=O)[O-])cnc2cccnc12` [Example 59, 1,1-Dimethyl-2-[(3-nitro[1,5]naphthyridin-4-yl)amino]ethanol] registered a melting point of 184.5 to 186 °C.
Consider `CCCCc1nc2c(N)nc3cccnc3c2n1CC(C)(C)O` [Example 62, 1,1-Dimethyl-2-(4-amino-2-butyl[1,5]napthyridin-1-yl)ethanol], for which the melting point is 177 to 179 °C. Moreover, the IFN induction entry in data set [1] (Dose Concentration 0.1 μM) is given as “+”. Further, in data set [1] (Dose Concentration 1.0 μM), the IFN induction result is reported as “+”. Also, the IFN induction entry in data set [1] (Dose Concentration 10.0 μM) was “+”. Further, the IFN induction result in data set [1] (Dose Concentration 100.0 μM) is “+”. In addition, the TNF induction entry in data set [2] (Dose Concentration 0.1 μM) was “+”. Besides, the TNF induction result in data set [2] (Dose Concentration 1.0 μM) is “+”. Also, in data set [2] (Dose Concentration 10.0 μM), the TNF induction entry is “+”. In data set [2] (Dose Concentration 100.0 μM), the TNF induction entry is given as “+”.
As for `CC(C)(O)Cn1c(Cc2ccccc2)nc2c(N)nc3cccnc3c21` [Example 65, 1,1-Dimethyl-2-(4-amino-2-phenylmethyl[1,5]napthyridin-1-yl)ethanol], the melting point is 211 to 213 °C. Further, in data set [1] (Dose Concentration 0.1 μM), the IFN induction result is recorded as “+”. Besides, the IFN induction entry in data set [1] (Dose Concentration 1.0 μM) is “+”. In addition, the IFN induction result in data set [1] (Dose Concentration 10.0 μM) is “+”. The IFN induction result in data set [1] (Dose Concentration 100.0 μM) is “+”. Moreover, the TNF induction result in data set [2] (Dose Concentration 0.1 μM) is listed as “−”. For the same molecule, the TNF induction entry in data set [2] (Dose Concentration 1.0 μM) is given as “+”. In data set [2] (Dose Concentration 10.0 μM), the TNF induction entry is reported as “+”. The TNF induction entry in data set [2] (Dose Concentration 100.0 μM) is “+”.
In turn, `O=[N+]([O-])c1cnc2cccnc2c1NCc1ccccc1` [Example 66, N-Phenylmethyl-3-nitro[1,5]naphthyridin-4-amine] yielded a melting point of 127 to 129 °C.
On the same count and under the same terms, under `CCOCc1nc2cnc3cccnc3c2n1Cc1ccccc1` [Example 68, 2-Ethoxymethyl-1-phenylmethyl-1H-imidazo[4,5-c][1,5]naphthyridine] stands 118 to 119 °C.
The molecule `CCOCc1nc2c(N)nc3cccnc3c2n1Cc1ccccc1` [Example 70, 2-Ethoxymethyl-1-phenylmethyl-1H-imidazo[4,5-c][1,5]naphthyridin-4-amine] gave a melting point of 173 to 174 °C. Further, the IFN induction result in data set [1] (Dose Concentration 0.1 μM) is listed as “+”. Also, the IFN induction entry in data set [1] (Dose Concentration 1.0 μM) was “+”. The IFN induction entry in data set [1] (Dose Concentration 10.0 μM) is recorded as “+”. Moreover, the IFN induction result in data set [1] (Dose Concentration 100.0 μM) is “−”. Also, the TNF induction result in data set [2] (Dose Concentration 0.1 μM) is “−”. Moreover, the TNF induction entry in data set [2] (Dose Concentration 1.0 μM) is “+”. In data set [2] (Dose Concentration 10.0 μM), the TNF induction entry is “+”. Moreover, in data set [2] (Dose Concentration 100.0 μM), the TNF induction entry is listed as “−”.
For `CC(C)OCCCNc1c([N+](=O)[O-])cnc2cccnc12` [Example 71, N^4-(3-Isopropoxypropyl)-3-nitro[1,5]naphthyridin-4-amine], the melting point is 62.5 to 63.5 °C.
Still for that read-out and setting: with `CCCCOCCCn1c(CCCC)nc2cnc3cccnc3c21` [Example 78, 1-(3-Butoxypropyl)-2-butyl-1H-imidazo[4,5-c][1,5]naphthyridine] the figure was 56.5 to 57.5 °C.
The same measure, in the same setting: with `O=[N+]([O-])c1cnc2cccnc2c1NCCOc1ccccc1` [Example 81, N^4-(2-Phenoxyethyl)-3-nitro[1,5]naphthyridin-4-amine] the figure was 107 to 108 °C.
For `CCCCc1nc2cnc3cccnc3c2n1CCOc1ccccc1` [Example 83, 2-(2-Butyl-1H-imidazo[4,5-c][1,5]naphthyridin-1-yl)ethyl Phenyl Ether], the melting point was 150 to 150.5 °C.
Regarding `CC(C)(C)OC(=O)NCCNc1c([N+](=O)[O-])cnc2cccnc12` [Example 86, 1,1-Dimethylethyl N-{2-[(3-Nitro[1,5]naphthyridin-4-yl)amino]ethyl}carbamate], the melting point lay within 149 to 151 °C.
In turn, `CCCCc1nc2c(N)nc3cccnc3c2n1CCNC(=O)C1CCC(=O)N1` (centres unmarked) [Example 213] gave a melting point of 135 to 138 °C.
